Activity calls are given as the source filed them. No cut-off for these calls is given here.
Columns and labels:
Prostaglandin E synthase = target: T1, Prostaglandin E synthase (Homo sapiens, UniProt O14684); assay: Inhibition of mPGES-1 expressed in […]-stimulated human A549 cells mitochondrial fraction assessed as conversion of PGH2 to PGE2; type: cell-based
T1 sequence (O14684 whole entry): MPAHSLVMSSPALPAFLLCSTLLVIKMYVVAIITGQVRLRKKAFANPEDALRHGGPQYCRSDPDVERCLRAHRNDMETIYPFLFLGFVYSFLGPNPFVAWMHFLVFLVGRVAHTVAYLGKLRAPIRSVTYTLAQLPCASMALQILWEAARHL

[1] = target: T2, Polyunsaturated fatty acid 5-lipoxygenase (Homo sapiens, UniProt P09917); assay: Inhibition of human recombinant 5-lipoxygenase
T2 sequence (P09917 whole entry): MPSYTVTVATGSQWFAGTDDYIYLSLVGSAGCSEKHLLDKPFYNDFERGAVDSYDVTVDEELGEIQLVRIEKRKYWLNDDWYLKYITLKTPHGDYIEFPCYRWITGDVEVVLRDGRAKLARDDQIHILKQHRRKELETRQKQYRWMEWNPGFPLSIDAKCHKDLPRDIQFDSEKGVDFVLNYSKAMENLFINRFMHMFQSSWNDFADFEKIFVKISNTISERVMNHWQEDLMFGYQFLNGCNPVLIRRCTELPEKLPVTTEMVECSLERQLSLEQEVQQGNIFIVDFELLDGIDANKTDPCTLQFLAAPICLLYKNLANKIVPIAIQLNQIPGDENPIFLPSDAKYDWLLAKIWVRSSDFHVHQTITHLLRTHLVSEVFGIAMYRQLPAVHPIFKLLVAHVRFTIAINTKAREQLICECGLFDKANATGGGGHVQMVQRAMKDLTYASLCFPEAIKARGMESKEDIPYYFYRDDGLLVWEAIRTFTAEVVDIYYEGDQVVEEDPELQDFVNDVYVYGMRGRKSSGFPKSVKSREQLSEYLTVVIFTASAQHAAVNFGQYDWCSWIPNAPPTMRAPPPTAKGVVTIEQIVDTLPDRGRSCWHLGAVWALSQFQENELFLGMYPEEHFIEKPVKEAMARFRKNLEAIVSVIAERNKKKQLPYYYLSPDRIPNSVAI

[2] = target: T2, Polyunsaturated fatty acid 5-lipoxygenase; assay: Inhibition of 5-lipoxygenase in human PMNL
[3] = target: T3, Polyunsaturated fatty acid 5-lipoxygenase (Homo sapiens) (UniProt P09917); assay: Inhibition of human recombinant 5-lipoxygenase assessed as remaining activity at 10 uM
T3 sequence (whole entry): T2 sequence (P09917 whole entry)

[4] = target: T4, Prostaglandin E synthase (Homo sapiens) (UniProt O14684); assay: Inhibition of mPGES-1 expressed in IL-1beta-stimulated human A549 cells mitochondrial fraction assessed as remaining activity at 10 uM
T4 sequence (whole entry): T1 sequence (O14684 whole entry)

[5] = target: T3, Polyunsaturated fatty acid 5-lipoxygenase (Homo sapiens); assay: Inhibition of 5-lipoxygenase in human PMNL assessed as remaining activity at 10 uM
[6] = target: T4, Prostaglandin E synthase (Homo sapiens); assay: Inhibition of mPGES-1 expressed in […]-stimulated human A549 cells mitochondrial fraction assessed as remaining activity at 10 uM; type: cell-based

Compound | IC50 (Prostaglandin E synthase) [µM] | IC50 [1] [µM] | IC50 [2] [µM] | Activity [3] | Activity [4] | Activity [5] | Activity [6] [%]
O=C(O)C(Sc1nc(Cl)cc(Nc2ccc(Cl)cc2)n1)c1cccc2ccccc12 (centres undefined) | 5.1 | 8.9 | 0.8 | – | – | – | –
O=C(O)C(Sc1nc(Cl)cc(NCc2ccc(-c3ccccc3)cc2)n1)c1cccc2ccccc12 (centres undefined) | 0.88 | 3 | 0.7 | – | – | – | –
O=C(O)C(Sc1nc(Cl)cc(Nc2ccc(Cc3ccccc3)cc2)n1)c1cccc2ccccc12 (centres undefined) | 1.5 | 2.2 | 0.3 | – | – | – | –
CC(C)(C)c1cc(Nc2cc(Cl)nc(SC(C(=O)O)c3cccc4ccccc34)n2)cc(C(C)(C)C)c1 (centres undefined) | 0.9 | 1.9 | 0.26 | – | – | – | –
O=C(O)C(Sc1nc(Cl)cc(NCCCc2ccccc2)n1)c1cccc2ccccc12 (centres undefined) | 6.1 | – | 1.8 | 68.9% | – | – | –
CC(C)c1ccc(Nc2cc(Cl)nc(SC(C(=O)O)c3cccc4ccccc34)n2)cc1 (centres undefined) | – | 5.8 | 0.26 | – | 35.8% | – | –
Cc1cccc(Nc2cc(Cl)nc(SCC(=O)O)n2)c1C | – | – | – | inactive | inactive | inactive | –
O=C(O)C(Sc1nc(Cl)cc(Nc2ccc(-c3ccccc3)cc2)n1)c1cccc2ccccc12 (centres undefined) | 0.94 | 2.3 | 0.1 | – | – | – | –
O=C(O)C(Sc1nc(Cl)cc(Nc2ccc(C3CCCCC3)cc2)n1)c1cccc2ccccc12 (centres undefined) | 1.45 | 2 | 0.4 | – | – | – | –
O=C(O)C(Sc1nc(Cl)cc(NCCc2ccccc2)n1)c1cccc2ccccc12 (centres undefined) | – | – | 2.5 | 44.2% | 42.3% | – | –
O=C(O)C(Sc1nc(Cl)cc(Nc2ccc3ccccc3c2)n1)c1cccc2ccccc12 (centres undefined) | 1.9 | 2.9 | 0.5 | – | – | – | –
Cc1ccc(Nc2cc(Cl)nc(SC(C(=O)O)c3cccc4ccccc34)n2)cc1C (centres undefined) | 5.7 | 8.5 | 0.7 | – | – | – | –
N#Cc1ccc(-c2ccc(Nc3cc(Cl)nc(SC(C(=O)O)c4cccc5ccccc45)n3)cc2)cc1 (centres undefined) | 1.6 | 2.3 | 0.17 | – | – | – | –
CC(C)CNc1cc(Cl)nc(SC(C(=O)O)c2cccc3ccccc23)n1 (centres undefined) | – | – | 2.5 | 54.8% | – | – | 65.3
O=C(Nc1ccc(Nc2cc(Cl)nc(SC(C(=O)O)c3cccc4ccccc34)n2)cc1)c1ccccc1 (centres undefined) | – | 5.2 | 0.6 | – | 38.8% | – | –
O=C(O)C(Sc1nc(Cl)cc(Nc2ccc3ncccc3c2)n1)c1cccc2ccccc12 (centres undefined) | – | – | 4.4 | 19% | 49.1% | – | –
CCCCNc1cc(Cl)nc(SC(C(=O)O)c2cccc3ccccc23)n1 (centres undefined) | – | – | 2.4 | 70.6% | 90.2% | – | –
O=C(O)C(Sc1nc(Cl)cc(Nc2ccc3c(c2)Cc2ccccc2-3)n1)c1cccc2ccccc12 (centres undefined) | 1.55 | 1.6 | 0.24 | – | – | – | –
O=C(O)C(Sc1nc(Cl)cc(Nc2ccc3c(c2)CCC3)n1)c1cccc2ccccc12 (centres undefined) | – | 4.2 | 0.5 | – | 36.7% | – | –
O=C(O)C(Sc1nc(Cl)cc(Nc2cccc(-c3ccccc3)c2)n1)c1cccc2ccccc12 (centres undefined) | 1.9 | 5 | 0.5 | – | – | – | –
O=C(O)C(Sc1nc(Cl)cc(Nc2ccc(F)cc2)n1)c1cccc2ccccc12 (centres undefined) | – | – | 3.1 | 67.3% | 49.9% | – | –
O=C(O)C(Sc1nc(Cl)cc(Nc2cccc(Cl)c2)n1)c1cccc2ccccc12 (centres undefined) | – | 5 | 0.7 | – | 45.5% | – | –
O=C(O)C(Sc1nc(Cl)cc(Nc2ccc(Oc3ccccc3)cc2)n1)c1cccc2ccccc12 (centres undefined) | 0.94 | 3.1 | 0.4 | – | – | – | –
